Source: patent publication US10450549B2, “Aryloxyphenoxypropionate tolerance in turfrgass species and use of AAD1 as a selectable marker” (Dow AgroSciences, LLC, priority 2004, dated 2019)

Legend:
Format in all cases: in vivo, Arabidopsis thaliana
wt ARBTH = test: In vitro plate test of herbicide cross resistance: wild-type Arabidopsis; settings: 7 days
Experimental: The ability of AAD1 (v3) to provide resistance to other aryloxyphenoxyalkanoate herbicides in transgenic Arabidopsis was determined using a modified in vitro plate assay. Seeds from wild-type Arabidopsis thaliana as well as Arabidopsis thaliana containing the plant optimized AAD1 (v3) gene (T4 homozygous plants id=PAAD1.315.064) were sterilized by agitating for 10 min in a 50% bleach solution. These seeds were then rinsed four times with sterile water to remove the bleach.
Dose response assays utilized a nutrient media (see below) supplemented with various rates of test compounds. The test compounds were added to the heated media (55° C.) as concentrated solutions in DMSO. Control wells had the appropriate amount of DMSO without any additional compound. The final concentration of DMSO never exceeded 1% (v/v). After thorough mixing, a 6 mL aliquot of the warm media containing the appropriate concentration of compound was added to each well of a 6-well, flat bottom, polystyrene tissue culture tray (Falcon 353046, Becton Dickson and Company, Franklin Lakes, N.J.). After the media solidified, approximately 20 to 30 Arabidopsis seeds were applied on top of the solidified media and the remaining 2 mL of media was poured over the seeds. The plates were lightly agitated to disperse the seeds, covered and allowed to cool until the media had completely solidified. The plates were incubated for 7 days at 25° C. under continual fluorescent lighting (75 μE m^−2 s^−1). Nutrient Media Composition was as described in Example 2.2 and in Somerville and Orgen (1982).
Assessment of Growth Reduction. The apical portion of the Arabidopsis plants grown in the treated media was assessed visually relative to the apical portion of the plants grown in the media containing only DMSO. Values were recorded as % growth reduction. Assessments of root growth inhibition of the Arabidopsis plants grown in the treated media were achieved by carefully extracting the plants from the media and measuring the length of the root. These root lengths were then compared to the root length of the control plants to determine a % growth reduction. A minimum of five plants were assessed for each treatment. The values recorded are an average of all the plants assessed. The calculated concentration to reach 50% inhibition effect (I50) were determined for both root and shoots of wildtype and AAD1-transformed Arabidopsis. The ratios of resistant to sensitive biotypes are included in Table 19. A ratio>2 for both root and shoot measurements generally signifies significant resistance. The higher the ratio, the greater the level of resistance. […] The broad phenoxy auxin resistance is the first reported in planta.

Wildtype Arabidopsis = test: T1 Arabidopsis spray test, % visual injury 2 WAT: wildtype control; settings: for % Injury Ave / individuals with 20-40% injury / individuals with <20% injury / individuals with >40% injury: Wildtype, 2 WAT
Text: (§1) Random individual T1 plants selected for glufosinate resistance above were confirmed for expression of the PAT protein using a PAT ELISA kit (Part no. 7000045, Strategic Diagnostics, Inc., Newark, Del.) to non-destructively confirm fidelity of selection process (manufacturer's protocol). Plants were then randomly assigned to various rates of phenoxy herbicides (dichlorprop or 2,4-D). […] Elevated rates were applied in subsequent trials (50, 200, 800, or 3200 g ae/ha).
(§2) All auxin herbicide applications were made using the DeVilbiss sprayer as described above to apply 703 L/ha spray volume (0.4 ml solution/3-inch pot) or applied by track sprayer in a 187 L/ha spray volume. […] Dichlorprop used was technical grade (Sigma, St. Louis, Mo.) dissolved in DMSO and diluted in water (<1% DMSO final concentration). As herbicide rates increased beyond 800 g ae/ha, the pH of the spray solution became exceedingly acidic, burning the leaves of young, tender Arabidopsis plants and complicating evaluation of the primary effects of the herbicides. It became standard practice to apply these high rates of phenoxy herbicides in 200 mM Tris buffer (pH 9.0) to a final pH of ˜7-8.
(§3) Although Arabidopsis, being a dicot, is not an optimal system for testing ACCase-inhibiting AOPP grass herbicides, AAD1 (v3)-transformed T1 plants were subjected to elevated rates (400-1600 g ae/ha) of RS-haloxyfop acid (internally synthesized) that do cause growth abnormalities and death of wildtype Arabidopsis using the DeVilbiss sprayer as described above. Injury ratings were taken 7 and 14 days after treatment. Likewise, T1 individuals were treated with the pyridyloxyacetate auxin herbicide, fluroxypyr.
(§4) Table 16. […] Response is presented in terms of % visual injury 2 WAT. […] Since each T1 is an independent transformation event, one can expect significant variation of individual T1 responses within a given rate. An arithmetic mean and standard deviation is presented for each treatment. The range in individual response is also indicated in the last column for each rate and transformation. PAT/Cry1F-transformed Arabidopsis served as an auxin-sensitive transformed control. Wildtype Arabidopsis is untransformed.
(§5) Table 17. T1 Arabidopsis response to a range of dichlroprop rates applied postemergence. Response is presented in terms of % visual injury 2 WAT. […] Since each T1 is an independent transformation event, one can expect significant variation of individual T1 responses within a given rate. An arithmetic mean and standard deviation is presented for each treatment. The range in individual response is also indicated in the last column for each rate and transformation. PAT/Cry1F-transformed Arabidopsis served as an auxin-sensitive transformed control. Wildtype Arabidopsis is untransformed.
as §5, with “18.” for “17.”, “haloxyfop” for “dichlroprop”, “postemergence at artificially high rates attempting to show tolerance of the dicot Arabidopsis to the graminicide.” for “postemergence.”

[1] = system: PAT/Cry1F-transformed Arabidopsis; test: T1 Arabidopsis spray test, % visual injury 2 WAT: PAT/Cry1F transformed control; settings: PAT/Cry1F (transformed control)
Text: as §1, §2, §3, §4, §5
as §5, with “18.” for “17.”, “haloxyfop” for “dichlroprop”, “postemergence at artificially high rates attempting to show tolerance of the dicot Arabidopsis to the graminicide.” for “postemergence.”

Nc1c(Cl)c(F)nc(OCC(=O)O)c1Cl [Fluroxypyr]
wt ARBTH root 150 (wt ARBTH): 0.2 ppm | wt ARBTH shoot 150 (wt ARBTH): 2 ppm

O=C(O)COc1ccc(Cl)cc1Cl [2,4-D, 2,4-dichlorophenoxyacetic acid]
% Injury Ave (Wildtype Arabidopsis; 50 g ae/ha): 90.0% | individuals with 20-40% injury (Wildtype Arabidopsis; 50 g ae/ha): 0 | individuals with <20% injury (Wildtype Arabidopsis; 50 g ae/ha): 0 | individuals with >40% injury (Wildtype Arabidopsis; 50 g ae/ha): 15 | % Injury Ave (Wildtype Arabidopsis; 200 g ae/ha): 95.1% | individuals with 20-40% injury (Wildtype Arabidopsis; 200 g ae/ha): 0 | individuals with <20% injury (Wildtype Arabidopsis; 200 g ae/ha): 0 | individuals with >40% injury (Wildtype Arabidopsis; 200 g ae/ha): 15 | % Injury Ave (Wildtype Arabidopsis; 800 g ae/ha): 100.0% | individuals with 20-40% injury (Wildtype Arabidopsis; 800 g ae/ha): 0 | individuals with <20% injury (Wildtype Arabidopsis; 800 g ae/ha): 0 | individuals with >40% injury (Wildtype Arabidopsis; 800 g ae/ha): 15 | GR99 for Arabidopsis (Wildtype Arabidopsis; postemergence spray): about 50 g ae/ha | % Injury Ave ([1]; 50 g ae/ha): 90.7% | individuals with 20-40% injury ([1]; 50 g ae/ha): 0 | individuals with <20% injury ([1]; 50 g ae/ha): 0 | individuals with >40% injury ([1]; 50 g ae/ha): 15 | % Injury Ave ([1]; 200 g ae/ha): 97.2% | individuals with 20-40% injury ([1]; 200 g ae/ha): 0 | individuals with <20% injury ([1]; 200 g ae/ha): 0 | individuals with >40% injury ([1]; 200 g ae/ha): 15 | % Injury Ave ([1]; 800 g ae/ha): 100.0% | individuals with 20-40% injury ([1]; 800 g ae/ha): 0 | individuals with <20% injury ([1]; 800 g ae/ha): 0 | individuals with >40% injury ([1]; 800 g ae/ha): 15 | wt ARBTH root 150 (wt ARBTH): <0.01 ppm | wt ARBTH shoot 150 (wt ARBTH): 0.2 ppm
